# Test results from patent US20080312263A1, “PHARMACEUTICAL COMPOSITIONS FOR THE PREVENTION AND TREATMENT OF ATHEROSCLEROSIS” (UNIVERSITE RENE DESCARTES-PARIS 5, priority 2004, published 2008).
# “Also recorded” adds a separate entry of the source.
# Key:
# [1] = Monitoring of the animals: weight and food intake; format: in vivo, rabbit; conditions: not included in the study
# Experimental: Twenty-four Watanabe rabbits (Centre de Production Animale, Olivet, France) which are hyperlipidaemic due to an hereditary LDL-receptor (LDL-R) deficiency, homozygous, and six weeks old, are used. Each animal is placed in an individual cage and receives a food ration of 200 g to 250 g per day.
# (§1) The food intake is measured daily and the animals are weighed once a week. Plasma samples are taken every fifteen days from the marginal ear vein. The blood, collected in heparin tubes, is centrifuged (4° C., 2000 g, 15 minutes). Part of the plasma is deproteinized by a solution of sulphosalicylic acid (30%) then divided into aliquot fractions with a view to an assay of the amino acids. The remainder of the plasma is aliquoted into several fractions of about 200 μl, and stored at −80° C.
# [2] = system: hypercholesterolemic rabbits; conditions: enriched diet over 12 to 16 weeks; cited from earlier work
# Watanabe rabbits [3] = assay: Lipid profile (plasmatic cholesterol, triglycerides, HDL, LDL) in treated Watanabe rabbits; format: in vivo, rabbit
# Experimental: 2. […] The cholesterol is assayed according to an enzymatic colorimetric test using a cholesterol-esterase and a cholesterol-oxidase, followed by a reaction with a peroxidase. The latter reacts with hydrogen peroxide and releases a red derivative the stain intensity of which (measured between 550 and 700 nm) is directly proportional to the cholesterol concentration. The triglyceride assay is also based on this principle, using a lipase which releases glycerol, and a peroxidase which reacts with the hydrogen peroxide and forms a red compound. The HDL cholesterol is assayed by an enzymatic calorimetric test in two phases. The first selects the different lipid fractions by means of dextran sulphate. […] The results are expressed in mmol/l. The kits necessary for all these assays are supplied by RANDOX (Montpellier, France).
# Watanabe rabbits [4] = assay: Macroscopic study of the aortas: surface area of the lesions by planimetry; format: in vivo, rabbit
# Experimental: After eight weeks, a sampling of serum (about 1 ml) is carried out then the animals are anaesthetized with an injection of heparinized pentobarbital, and finally sacrificed.
# On the day of sacrifice, after anaesthesia, in the shortest possible time, the animal is opened along the whole length of the cervico-thoracic region. The aorta is incised as low as possible. Using curved scissors, the aorta is removed from the aortic arch as far as the level of the iliac bifurcation following the vertebral column. The aorta is first cleaned in physiological serum and the fatty tissues are removed from its external tunica. It is fixed for 20 minutes in a 2% paraformaldehyde-2% glutaraldehyde mixture then opened along its length. It is then again immersed in the same fixer for 24 hours, after which the aorta is rinsed in 70% ethanol, then stained with Soudan IV for 15 minutes. It is once again rinsed in 80% ethanol for 20 minutes then under running water for 1 hour (22). […] The images are analyzed by means of planimetry software (Scion Image) which makes it possible to determine the surface of the lesions. Finally the aorta is fixed in the same fixer with a view to microscopic study.
# [5] = rabbit, in vivo
# Experimental: Each animal is placed in an individual cage and receives a food ration of 200 g to 250 g per day.
# as §1
# The plasmatic arginine, ornithine and citrulline concentrations are determined on a JEOL (Tokyo, Japan) amino acid analyzer. The amino acids are separated by cation-exchange chromatography. On leaving the column, they are developed by a ninhydrin stain reaction. The reaction obtained is quantified by photometry at 570 and 440 nm. The results are expressed in μmol/l.
# [6] = system: New Zealand White rabbits; conditions: 2.5 mg/kg/day; cited from earlier work
# New Zealand White rabbit = conditions: cited from earlier work
# Watanabe rabbits [7] = conditions: 16 weeks; cited from earlier work
smiles,measurement,setting,value
"N=C(N)NCCC[C@H](N)C(=O)O [arginine, L-Arginine]",animals died before the end of the protocol,[1],two animals
same,atheromatous plaque area,[2],stabilization
same,effect on the plasmatic cholesterol,"Watanabe rabbits [3]; 8 weeks treatment, versus control at T8, FIG. 3",no effect
same,effect on the lipid profile,Watanabe rabbits [3]; arginine diet alone,no appreciable effect
same,increase in the plasmatic cholesterol concentration,Watanabe rabbits [3]; between T0 and T8,30%
same,"plasmatic triglycerides concentration, course","Watanabe rabbits [3]; between T0 and T8, FIG. 4",increases with age; also recorded: increase by more than half
same,lesion surface smaller than the control by a factor,Watanabe rabbits [4]; T8,1.3
same,surface area of the lesions (whole aorta),"Watanabe rabbits [4]; T8, versus the control, FIG. 10",smaller
same,"surface area of the lesions, distal half of the aorta","Watanabe rabbits [4]; T8, FIG. 11",no effect
same,L-Arginine concentration in general,[5],doubled
same,"plasmatic arginine concentration, at T4",[5],doubled
same,"plasmatic arginine concentration, at T8",[5],drops
"CC(C)c1c(C(=O)Nc2ccccc2)c(-c2ccccc2)c(-c2ccc(F)cc2)n1CC[C@@H](O)C[C@@H](O)CC(=O)O [atorvastatin, Atorvastatin, reference compound]",effect on LDL concentration,"Watanabe rabbits [3]; FIG. 6, during treatment",induces a reduction
same,reduction of the LDL fraction,"Watanabe rabbits [3]; LDL calculated by Friedewald formula, between T0 and T8",27.16%
same,size of the lesions,[6],reduction in the size of the lesions
CC[C@H](C)C(=O)O[C@H]1C[C@@H](C)C=C2C=C[C@H](C)[C@H](CC[C@@H]3C[C@@H](O)CC(=O)O3)[C@H]21 [lovastatin],reduction in cholesterol,"New Zealand White rabbit; 16 weeks, New Zealand White rabbit",32%
same,plaque progression,New Zealand White rabbit; New Zealand White rabbits,slowed down the plaque progression
O=C(O)C[C@H](O)C[C@H](O)/C=C/c1c(C2CC2)nc2ccccc2c1-c1ccc(F)cc1 [pitavastatin],reduction in plasmatic cholesterol,Watanabe rabbits [7],28.6%
